Measured values reported in PubChem BioAssay (NCI).
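Five concentrations, 48 hours, 96-well plates. TGI denotes the concentration required for complete inhibition of growth.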

How the values were obtained:
Test in all cases: NCI tumour cell line growth inhibition, 48 h
MDA-N = tested on: MDA-N
MCF7 breast = tested on: MCF7 breast
OVCAR-8 ovarian = tested on: OVCAR-8 ovarian
SNB-19 CNS = tested on: SNB-19 CNS
U251 CNS = tested on: U251 CNS
PC-3 prostate = tested on: PC-3 prostate
786-0 renal = tested on: 786-0 renal
NCI-H23 lung = tested on: NCI-H23 lung
NCI-H522 lung = tested on: NCI-H522 lung
HS 578T breast = tested on: HS 578T breast
HCC-2998 colon = tested on: HCC-2998 colon
CAKI-1 renal = tested on: CAKI-1 renal
HOP-92 NSCLC = tested on: HOP-92 NSCLC
EKVX NSCLC = tested on: EKVX NSCLC
HT29 colon = tested on: HT29 colon
K-562 leukemia = tested on: K-562 leukemia
SW-620 colon = tested on: SW-620 colon
SK-MEL-28 melanoma = tested on: SK-MEL-28 melanoma
SK-MEL-2 melanoma = tested on: SK-MEL-2 melanoma
SF-268 CNS = tested on: SF-268 CNS
NCI-H226 lung = tested on: NCI-H226 lung
TK-10 renal = tested on: TK-10 renal
UACC-257 melanoma = tested on: UACC-257 melanoma
HL-60(TB) leukemia = tested on: HL-60(TB) leukemia
UO-31 renal = tested on: UO-31 renal
HCT-116 colon = tested on: HCT-116 colon
SK-OV-3 ovarian = tested on: SK-OV-3 ovarian
CCRF-CEM leukemia = tested on: CCRF-CEM leukemia
RPMI-8226 leukemia = tested on: RPMI-8226 leukemia
KM12 colon = tested on: KM12 colon
RXF 393 renal = tested on: RXF 393 renal
NCI/ADR-RES ovarian = tested on: NCI/ADR-RES ovarian
OVCAR-3 ovarian = tested on: OVCAR-3 ovarian
SR leukemia = tested on: SR leukemia
MDA-MB-435 = tested on: MDA-MB-435
M14 melanoma = tested on: M14 melanoma
HCT-15 colon = tested on: HCT-15 colon
HOP-62 NSCLC = tested on: HOP-62 NSCLC
UACC-62 melanoma = tested on: UACC-62 melanoma
NCI-H460 lung = tested on: NCI-H460 lung
A498 renal = tested on: A498 renal
IGROV1 ovarian = tested on: IGROV1 ovarian
MOLT-4 leukemia = tested on: MOLT-4 leukemia
SNB-75 CNS = tested on: SNB-75 CNS
OVCAR-4 ovarian = tested on: OVCAR-4 ovarian
OVCAR-5 ovarian = tested on: OVCAR-5 ovarian
MALME-3M melanoma = tested on: MALME-3M melanoma
A549 NSCLC = tested on: A549 NSCLC
SF-295 CNS = tested on: SF-295 CNS
SF-539 CNS = tested on: SF-539 CNS
LOX IMVI melanoma = tested on: LOX IMVI melanoma
ACHN renal = tested on: ACHN renal
SN12C renal = tested on: SN12C renal
BT-549 breast = tested on: BT-549 breast
SK-MEL-5 melanoma = tested on: SK-MEL-5 melanoma
MDA-MB-231 breast = tested on: MDA-MB-231 breast
COLO 205 colon = tested on: COLO 205 colon
DU-145 prostate = tested on: DU-145 prostate

Which TGI (MDA-N) does the source give for Cc1cc2c(cc1C)[n+]([O-])c(NCCCN(C)C)c(C#N)[n+]2[O-] here?
The TGI was over 100 µM.

And the TGI (MCF7 breast)?
Its TGI is over 100 µM.

What about the TGI (OVCAR-8 ovarian) of the same molecule?
Its TGI is over 100 µM.

And the TGI (SNB-19 CNS)?
The TGI was over 100 µM.

What about the TGI (U251 CNS) of the same molecule?
The TGI was over 100 µM.

And the TGI (PC-3 prostate)?
Its TGI is over 100 µM.

And the TGI (786-0 renal)?
Its TGI is over 100 µM.

And the TGI (NCI-H23 lung)?
The TGI was over 100 µM.

What about the TGI (NCI-H522 lung) of the same molecule?
The TGI was over 100 µM.

And the TGI (HS 578T breast)?
Its TGI is over 100 µM.

What about the TGI (HCC-2998 colon) of the same molecule?
Its TGI is over 100 µM.

What about the TGI (CAKI-1 renal) of the same molecule?
The TGI was over 100 µM.

What about the TGI (HOP-92 NSCLC) of the same molecule?
The TGI was over 100 µM.

And the TGI (EKVX NSCLC)?
Its TGI is over 100 µM.

And the TGI (HT29 colon)?
The TGI was over 100 µM.

What about the TGI (K-562 leukemia) of the same molecule?
Its TGI is over 100 µM.

What about the TGI (SW-620 colon) of the same molecule?
Its TGI is over 100 µM.

What about the TGI (SK-MEL-28 melanoma) of the same molecule?
The TGI was over 100 µM.

And the TGI (SK-MEL-2 melanoma)?
The TGI was over 100 µM.

And the TGI (SF-268 CNS)?
The TGI was over 100 µM.

And the TGI (NCI-H226 lung)?
Its TGI is over 100 µM.

What about the TGI (TK-10 renal) of the same molecule?
Its TGI is over 100 µM.

And the TGI (UACC-257 melanoma)?
The TGI was over 100 µM.

And the TGI (HL-60(TB) leukemia)?
Its TGI is over 100 µM.

And the TGI (UO-31 renal)?
The TGI was over 100 µM.

What about the TGI (HCT-116 colon) of the same molecule?
The TGI was over 100 µM.

What about the TGI (SK-OV-3 ovarian) of the same molecule?
Its TGI is over 100 µM.

And the TGI (CCRF-CEM leukemia)?
The TGI was over 100 µM.

And the TGI (RPMI-8226 leukemia)?
Its TGI is over 100 µM.

What about the TGI (KM12 colon) of the same molecule?
Its TGI is over 100 µM.

What about the TGI (RXF 393 renal) of the same molecule?
Its TGI is over 100 µM.

And the TGI (NCI/ADR-RES ovarian)?
Its TGI is over 100 µM.

And the TGI (OVCAR-3 ovarian)?
Its TGI is over 100 µM.

And the TGI (SR leukemia)?
Its TGI is over 100 µM.

And the TGI (MDA-MB-435)?
The TGI was over 100 µM.

What about the TGI (M14 melanoma) of the same molecule?
The TGI was over 100 µM.

And the TGI (HCT-15 colon)?
The TGI was over 100 µM.

And the TGI (HOP-62 NSCLC)?
Its TGI is over 100 µM.

And the TGI (UACC-62 melanoma)?
The TGI was over 100 µM.

And the TGI (NCI-H460 lung)?
The TGI was over 100 µM.

What about the TGI (A498 renal) of the same molecule?
Its TGI is over 100 µM.

What about the TGI (IGROV1 ovarian) of the same molecule?
Its TGI is over 100 µM.

What about the TGI (MOLT-4 leukemia) of the same molecule?
The TGI was over 100 µM.

What about the TGI (SNB-75 CNS) of the same molecule?
The TGI was over 100 µM.

And the TGI (OVCAR-4 ovarian)?
Its TGI is over 100 µM.

What about the TGI (OVCAR-5 ovarian) of the same molecule?
The TGI was over 100 µM.

What about the TGI (MALME-3M melanoma) of the same molecule?
Its TGI is over 100 µM.

And the TGI (A549 NSCLC)?
Its TGI is over 100 µM.

And the TGI (SF-295 CNS)?
Its TGI is over 100 µM.

What about the TGI (SF-539 CNS) of the same molecule?
The TGI was over 100 µM.

And the TGI (LOX IMVI melanoma)?
Its TGI is over 100 µM.

And the TGI (ACHN renal)?
Its TGI is over 100 µM.

What about the TGI (SN12C renal) of the same molecule?
The TGI was over 100 µM.

And the TGI (BT-549 breast)?
The TGI was over 100 µM.

For C/C(=N/NC(=S)N1CCCCC1)c1cccc(/C(C)=N\NC(=S)N2CCCCC2)n1, which TGI (MDA-N) is on record?
Its TGI is 3.17 µM.

What about the TGI (MCF7 breast) of the same molecule?
The TGI was 4.46 µM.

What about the TGI (OVCAR-8 ovarian) of the same molecule?
The TGI was 3.19 µM.

What about the TGI (SNB-19 CNS) of the same molecule?
The TGI was 7.09 µM.

What about the TGI (U251 CNS) of the same molecule?
Its TGI is 4.45 µM.

And the TGI (PC-3 prostate)?
The TGI was 4.03 µM.

What about the TGI (786-0 renal) of the same molecule?
The TGI was 3.46 µM.

And the TGI (NCI-H23 lung)?
The TGI was over 100 µM.

And the TGI (NCI-H522 lung)?
Its TGI is 4.34 µM.

What about the TGI (HS 578T breast) of the same molecule?
Its TGI is 6.57 µM.

And the TGI (HCC-2998 colon)?
The TGI was 4.01 µM.

What about the TGI (CAKI-1 renal) of the same molecule?
The TGI was 3.93 µM.

What about the TGI (EKVX NSCLC) of the same molecule?
The TGI was 5.79 µM.

What about the TGI (HT29 colon) of the same molecule?
Its TGI is 7.22 µM.

What about the TGI (K-562 leukemia) of the same molecule?
Its TGI is 6.65 µM.

And the TGI (SW-620 colon)?
The TGI was 10.6 µM.

And the TGI (SK-MEL-28 melanoma)?
The TGI was 4.32 µM.

And the TGI (SK-MEL-2 melanoma)?
Its TGI is 4.2 µM.

And the TGI (SF-268 CNS)?
The TGI was 9.06 µM.

What about the TGI (NCI-H226 lung) of the same molecule?
The TGI was 5.54 µM.

What about the TGI (TK-10 renal) of the same molecule?
The TGI was 3.69 µM.

And the TGI (UACC-257 melanoma)?
The TGI was 6.85 µM.

And the TGI (HL-60(TB) leukemia)?
The TGI was 5.66 µM.

What about the TGI (UO-31 renal) of the same molecule?
The TGI was 2.78 µM.

What about the TGI (HCT-116 colon) of the same molecule?
Its TGI is 3.64 µM.

What about the TGI (SK-OV-3 ovarian) of the same molecule?
Its TGI is 3.56 µM.

And the TGI (SK-MEL-5 melanoma)?
Its TGI is 3.54 µM.

And the TGI (CCRF-CEM leukemia)?
The TGI was over 100 µM.

And the TGI (RPMI-8226 leukemia)?
Its TGI is 6.84 µM.

And the TGI (KM12 colon)?
The TGI was 6.14 µM.

And the TGI (RXF 393 renal)?
The TGI was 5.15 µM.

And the TGI (NCI/ADR-RES ovarian)?
Its TGI is 4.72 µM.

What about the TGI (MDA-MB-231 breast) of the same molecule?
The TGI was 3.99 µM.

What about the TGI (OVCAR-3 ovarian) of the same molecule?
Its TGI is 5.49 µM.

What about the TGI (SR leukemia) of the same molecule?
The TGI was 6.58 µM.

What about the TGI (COLO 205 colon) of the same molecule?
Its TGI is 10.1 µM.

And the TGI (MDA-MB-435)?
Its TGI is 3.62 µM.

What about the TGI (HCT-15 colon) of the same molecule?
Its TGI is 4.25 µM.

What about the TGI (HOP-62 NSCLC) of the same molecule?
The TGI was 15.9 µM.

And the TGI (UACC-62 melanoma)?
Its TGI is 5.54 µM.

And the TGI (NCI-H460 lung)?
The TGI was 4.75 µM.

And the TGI (DU-145 prostate)?
Its TGI is 6.35 µM.

What about the TGI (A498 renal) of the same molecule?
The TGI was 3.16 µM.

And the TGI (IGROV1 ovarian)?
Its TGI is 4.45 µM.

And the TGI (MOLT-4 leukemia)?
Its TGI is 6.38 µM.

And the TGI (SNB-75 CNS)?
The TGI was 6.53 µM.

And the TGI (OVCAR-5 ovarian)?
Its TGI is 2.44 µM.

What about the TGI (MALME-3M melanoma) of the same molecule?
Its TGI is 4.58 µM.

And the TGI (A549 NSCLC)?
Its TGI is 7.29 µM.

What about the TGI (SF-295 CNS) of the same molecule?
Its TGI is 4.06 µM.

And the TGI (SF-539 CNS)?
The TGI was 3.9 µM.

And the TGI (LOX IMVI melanoma)?
Its TGI is 5.4 µM.

What about the TGI (ACHN renal) of the same molecule?
The TGI was 3.02 µM.

What about the TGI (SN12C renal) of the same molecule?
The TGI was 4.83 µM.

What about the TGI (BT-549 breast) of the same molecule?
Its TGI is 3.4 µM.
